For the experiment, the target named is Delta-type opioid receptor (Homo sapiens, UniProt P41143). Nature of the experiment: Displacement of [3H]-DADLE from human delta opioid receptor expressed in CHO cells membrane after 2 hrs by liquid scintillation counting. On the technique in general: Displacement assays read how much labelled ligand stays bound in the presence of the test substance.
Delta-type opioid receptor, sequence (P41143 whole entry): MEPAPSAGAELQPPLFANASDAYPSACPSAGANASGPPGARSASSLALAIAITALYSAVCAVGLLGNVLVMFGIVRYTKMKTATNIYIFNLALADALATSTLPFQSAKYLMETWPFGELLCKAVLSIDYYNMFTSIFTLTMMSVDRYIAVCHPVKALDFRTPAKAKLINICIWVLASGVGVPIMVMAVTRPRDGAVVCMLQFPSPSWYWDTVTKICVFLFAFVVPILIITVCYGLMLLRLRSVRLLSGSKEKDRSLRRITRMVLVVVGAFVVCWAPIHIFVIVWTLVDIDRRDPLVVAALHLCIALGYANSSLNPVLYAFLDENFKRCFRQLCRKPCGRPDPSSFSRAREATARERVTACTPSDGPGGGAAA
Usually Ki stands for a measure of affinity in units of concentration, obtained from inhibition or displacement. A low value points to higher affinity. Turning to `Oc1cccc([C@@]23CCC[C@@H](C2)N(CCc2ccccc2)C[C@@H]3O)c1`, the affinity, expressed as Ki, was 5.8 µM. The same measure for `CN1CC2(OCCO2)[C@]2(c3cccc(O)c3)CCC[C@H]1C2`: above 7.8 µM. The result for `CN1C2CCC[C@@](c3cccc(O)c3)(C2)[C@@H]1CO` reads above 10 µM; that for `CN1C[C@H](O)[C@]2(c3cccc(O)c3)CCC[C@H]1C2`, 7.2 µM; that for `CN1C[C@@H](O)[C@]2(c3cccc(O)c3)CCC[C@H]1C2`, above 15 µM.

Compound `Oc1cccc([C@@]23CCC[C@@H](C2)N(CCc2ccccc2)C[C@H]3O)c1` had a Ki of 1 µM.

For the origin of these results see BindingDB's records for doi:10.1016/j.ejmech.2012.01.025 (National Institute On Drug Abuse and The National Institute …, 2012).
